Read-outs that look alike come from different tables or passages of the source.

The test system of assay [1] is platelet aggregation induced by PAF. The assay can be described thus: Test 1: inhibition of platelet aggregation induced by PAF in vitro (rabbit platelet rich plasma, Born nephelometric technique). The class given is cell-based, male New Zealand albino rabbits. Conditions: PAF C18 16 nM final, read-out: IC50 (concentration of the drug needed to inhibit the platelet aggregation in a 50%). The procedure:
TEST 1: INHIBITION OF PLATELET AGGREGATION INDUCED BY PAF
The platelet rich plasma (PRP) is prepared by blood centrifugation at 250 xg for 10 min. at 4° C. and it is diluted with platelet poor plasma (PPP) obtained by additional centrifugation at 300 xg for 10 min. The amount of platelets is adjusted to […].

Assay [2] concerns hypotension induced by PAF. Nature of the assay: Test 2: inhibition of the hypotensive effect induced by PAF in normotense rats. The class given is in vivo, male Sprague Dawley rats. The note with it: Rattus norvegicus, iv, anesthetized rats; compound via femoral vein 3 min before PAF (0.5 mg/Kg, i.v.); read-out: IC50 (inhibition of the hypotension induced by PAF). The procedure: TEST 2--INHIBITION OF THE HYPOTENSIVE EFFECT INDUCED BY PAF IN NORMOTENSE RATS
Male Sprague Dawley rats, of 180-220 g of weight, anesthetized with sodium pentobarbital (50 mg/Kg, i.p. 1 mL/100 g) have been used. In order to measure the average arterial pressure a polyethylene catheter was introduced into the carotid artery. The arterial pressure was recorded with the help of a transducer connected with a R611 Beckman polygraph. The tested compounds were administrated through the femoral vein 3 min. before the injection of PAF (0.5 mg/Kg, i.v.).

Where [3] appears, read: Oryctolagus cuniculus, Platelet.

For the compound `CCCCCCCCCCCCCCCCOCC1COC(COC(=O)N(Cc2cccc[n+]2CC)C(=O)OCC)C1` (racemic) [Compound 15, (±)-cis, trans-N-ethyl-[N-ethoxycarbonyl-[[[(4-hexadecyloxymethyltetrahydrofuran-2-yl)methoxy]carbonyl]amino]methyl]pyridinium iodide], in assay [1] (setting [3]), the IC50 is 48 nM. Moreover, the ED50 in assay [2] is 0.035 mg/kg.

As to `CCCCCCCCCCCCCCCCCCOCC1CC(COCCCCCCC[n+]2ccsc2)CO1` (racemic) [Compound 61, (±)-cis, trans-3-[7-[(2-octadecyloxymethyltetrahydrofuran-4-yl)methoxy]heptyl]thiazolium chloride], the IC50 in assay [1] (setting [3]) turned out to be 2000 nM. The ED50 in assay [2] is 2.1 mg/kg.

Take `CCCCCCCCCCCCCCCCCCOCC1COC(COC(=O)N(Cc2cccc[n+]2C)C(C)=O)C1` (racemic) [Compound 19, (±)-cis, trans-N-methyl-2-[N-acetyl-[[[(4-octadecyloxymethyltetrahydrofuran-2-yl)methoxy]carbonyl]amino]methyl]pyridinium iodide]: in assay [1] (setting [3]), the IC50 came to 90 nM. Also, in assay [2], the ED50 amounted to 0.14 mg/kg.

Consider `CCCCCCCCCCCCCCCNC(=O)OCC1COC(COC(=O)CCCCC[n+]2ccsc2)C1` (racemic) [Compound 7, (±)-cis, trans-3-[6-oxo-6-[(4-pentadecylaminocarbonyloxymethyltetrahydrofuran-2-yl)methoxy]hexyl]thiazolium 4-methylbenzenesulfonate], for which the IC50 in assay [1] (setting [3]) amounted to 5900 nM. Moreover, the ED50 in assay [2] came to 3.6 mg/kg.

As to `CCCCCCCCCCCCCCOCC1COC(COCCCCCC[n+]2ccsc2)C1` (racemic) [Compound 3, (±)-cis, trans-3-[6-[(4-tetradecyloxymethyltetrahydrofuran-2-yl)methoxy]hexyl]thiazolium 4-methylbenzenesulfonate], in assay [1] (setting [3]), the IC50 is 700 nM. Also, the ED50 in assay [2] was 3 mg/kg.

Regarding `CCCCCCCCCCCCCCCCOCC1COC(COC(=O)N(Cc2cccc[n+]2CC)C(C)=O)C1` (racemic) [Compound 13, (±)-cis, trans-N-ethyl-2-[N-acetyl-[[[(4-hexadecyloxymethyltetrahydrofuran-2-yl)methoxy]carbonyl]amino]methyl]pyridinium iodide], in assay [1], the IC50 worked out at 22 nM. Moreover, the ED50 in assay [2] came out at 0.035 mg/kg.

In the case of `CCCCCCCCCCCCCCCCOCC1COC(COCCCCCC[n+]2ccsc2)C1` (racemic) [Compound 4, (±)-cis, trans-3-[6-[(4-hexadecyloxymethyltetrahydrofuran-2-yl)methoxy]hexyl]thiazolium 4-methylbenzenesulfonate], in assay [1] (setting [3]), the IC50 was found to be 1400 nM. Moreover, the ED50 in assay [2] stood at 1.2 mg/kg.

With `CCCCCCCCCCCCCCCCCCC1COC(COC(=O)N(Cc2cccc[n+]2CC)C(C)=O)C1` (racemic) [Compound 113], in assay [1] (setting [3]), the IC50 is 200 nM. In addition, the ED50 in assay [2] was 0.2 mg/kg.

As to `CCCCCCCCCCCCCCC1COC(COC(=O)N(Cc2cccc[n+]2C)C(C)=O)C1` (racemic) [Compound 109, (±)-cis,trans-N-methyl-2-[N-acetyl-[[[(4-tetradecyltetrahydrofuran-4-yl]methoxy]carbonyl]amino]methyl]pyridinium iodide], the IC50 in assay [1] (setting [3]) was found to be 240 nM. Further, the ED50 in assay [2] is 0.39 mg/kg.

For the compound `CCCCCCCCCCCCCCCCCCOCC1CC(COC(=O)N(Cc2cccc[n+]2C)C(C)=O)CO1` (racemic) [Compound 68, (±)-cis, trans-N-methyl-2-[N-acetyl-[[[(2-octadecyloxymethyltetrahydrofuran-4-yl)methoxy]carbonyl]amino]methyl]pyridinium iodide], in assay [1] (setting [3]), the IC50 came out at 140 nM. The ED50 in assay [2] was 0.11 mg/kg.

In the case of `CCCCCCCCCCCCCCC1COC(COCCCCCC[n+]2cccc3ccccc32)C1` (racemic) [Compound 72, (±)-cis, trans-1-[6-[(4-tetradecyltetrahydrofuran-2-yl)methoxy]hexyl]quinolinium 4-methylbenzenesulfonate], the IC50 in assay [1] (setting [3]) worked out at 3400 nM. Besides, the ED50 in assay [2] was determined as 3.2 mg/kg.

Turning to `CCCCCCCCCCCCCCCCOCC1COC(COC(=O)NCc2cccc[n+]2CC)C1` (racemic) [Compound 10, (±)-cis, trans-N-ethyl-2-[[[(4-hexadecyloxymethyltetrahydrofuran-2-yl)methoxy]carbonyl]amino]methylpyridinium iodide], the IC50 in assay [1] (setting [3]) is 3800 nM. Moreover, in assay [2], the ED50 turned out to be 6.6 mg/kg.

With `CCCCCCCCCCCCCCCCOCC1CC(COCCCCCC[n+]2ccsc2)CO1` (mixture of isomers) [Compound 63, (35)-cis, trans-3-[6-[(2-hexadecyloxymethyltetrahydrofuran-4-yl)methoxy]hexyl]thiazolium 4-methylbenzenesulfonate], the IC50 in assay [1] (setting [3]) came to 1400 nM. The ED50 in assay [2] turned out to be 2.5 mg/kg.

With `CCCCCCCCCCCCOCC1COC(COCCCCCCC[n+]2ccsc2)C1` (racemic) [Compound 1, (±)-cis, trans-3-[7-[(4-dodecyloxymethyltetrahydrofuran-2-yl)methoxy]heptyl]thiazolium 4-methylbenzenesulphonate], the IC50 in assay [1] (setting [3]) turned out to be 2500 nM. The ED50 in assay [2] was 3.7 mg/kg.

These data come from US4997843A, “2,4-disubstituted derivatives of tetrahydrofuran useful for the treatment of PAF mediated illnesses” (J Uriach & Cia S.A., priority 1987, dated 1991).
